# In PubChem BioAssay AID1259407 (Chemical Carcinogenesis Research Information System (CCRIS), 2018):
# Active and inactive are the calls of the source. How the calls were made is not given here.
# Test system: CCRIS mutagenicity, Ames/micronucleus/aberration tests
# Test: CCRIS mutagenicity studies
structure (smiles),measurement,setting,value
O=[N+]([O-])c1ccc(Cl)cc1,mutagenic call,"End Point: IN VITRO CHROMOSOMAL ABERRATIONS, Test System: CHL CELLS, Metabolic Activation: NONE","active; positive (ploidy changes); precipitation occurred at 0.4, 0.5, and 0.6 mg/ml"
same,mutagenic call,"End Point: IN VITRO CHROMOSOMAL ABERRATIONS, Test System: CHL CELLS, Metabolic Activation: RAT, LIVER, S-9, SODIUM PHENOBARBITAL AND 5,6-BENZOFLAVONE",active; positive (structural changes); authors report equivocal results for ploidy chang
same,mutagenic call,"End Point: IN VITRO CHROMOSOMAL ABERRATIONS, Test System: HUMAN PERIPHERAL LYMPHOCYTES, Metabolic Activation: NONE",inactive; negative
same,mutagenic call,"Test System: AMES SALMONELLA TYPHIMURIUM, Strain/Indicator: TA98, Metabolic Activation: NONE, Method: PREINCUBATION",inactive; negative
same,mutagenic call,"Test System: AMES SALMONELLA TYPHIMURIUM, Strain/Indicator: TA98, Metabolic Activation: RAT, LIVER, S-9, KANECHLOR 500, Method: PREINCUBATION",inactive; negative
same,mutagenic call,"Test System: AMES SALMONELLA TYPHIMURIUM, Strain/Indicator: TA100, Metabolic Activation: NONE, Method: PREINCUBATION",inactive; negative
same,mutagenic call,"Test System: Ames Salmonella typhimurium, Strain/Indicator: TA98, Metabolic Activation: None, Method: Preincubation",inactive; negative
same,mutagenic call,"Test System: Ames Salmonella typhimurium, Strain/Indicator: TA98, Metabolic Activation: Rat, Liver, S9, Sodium phenobarbital and 5,6-benzoflavone (10%), Method: Preincubation",inactive; negative
same,mutagenic call,"Test System: Ames Salmonella typhimurium, Strain/Indicator: TA98, Metabolic Activation: Rat, Liver, S9, Sodium phenobarbital and 5,6-benzoflavone, Method: Preincubation",inactive; negative
same,mutagenic call,"Test System: Ames Salmonella typhimurium, Strain/Indicator: TA100, Metabolic Activation: None, Method: Preincubation",inactive; negative
same,mutagenic call,"Test System: Ames Salmonella typhimurium, Strain/Indicator: TA1535, Metabolic Activation: None, Method: Preincubation",inactive; negative
same,mutagenic call,"Test System: Ames Salmonella typhimurium, Strain/Indicator: TA1535, Metabolic Activation: Rat, Liver, S9, Sodium phenobarbital and 5,6-benzoflavone (10%), Method: Preincubation",inactive; negative
same,mutagenic call,"Test System: Ames Salmonella typhimurium, Strain/Indicator: TA1537, Metabolic Activation: None, Method: Preincubation",inactive; negative
same,mutagenic call,"Test System: Ames Salmonella typhimurium, Strain/Indicator: TA1537, Metabolic Activation: Rat, Liver, S9, Sodium phenobarbital and 5,6-benzoflavone (10%), Method: Preincubation",inactive; negative
same,mutagenic call,"Test System: Ames Salmonella typhimurium, Strain/Indicator: TA1537, Metabolic Activation: Rat, Liver, S9, Sodium phenobarbital and 5,6-benzoflavone, Method: Preincubation",inactive; negative
same,mutagenic call,"Test System: E. coli, Strain/Indicator: WP2uvrA/PKM101, Metabolic Activation: None, Method: Preincubation",inactive; negative
same,mutagenic call,"Test System: E. coli, Strain/Indicator: WP2uvrA/PKM101, Metabolic Activation: Rat, Liver, S9, Sodium phenobarbital and 5,6-benzoflavone (10%), Method: Preincubation",inactive; negative
same,mutagenic call,"Test System: E. coli, Strain/Indicator: WP2uvrA/pKM101, Metabolic Activation: None, Method: Preincubation",inactive; negative
same,mutagenic call,"Test System: E. coli, Strain/Indicator: WP2uvrA/pKM101, Metabolic Activation: Rat, Liver, S9, Sodium phenobarbital and 5,6-benzoflavone, Method: Preincubation",inactive; negative
